In assay [1] the target is T1, UDP-glucose dehydrogenase (Homo sapiens, UniProt O60701).
T1 sequence (O60701 1-494): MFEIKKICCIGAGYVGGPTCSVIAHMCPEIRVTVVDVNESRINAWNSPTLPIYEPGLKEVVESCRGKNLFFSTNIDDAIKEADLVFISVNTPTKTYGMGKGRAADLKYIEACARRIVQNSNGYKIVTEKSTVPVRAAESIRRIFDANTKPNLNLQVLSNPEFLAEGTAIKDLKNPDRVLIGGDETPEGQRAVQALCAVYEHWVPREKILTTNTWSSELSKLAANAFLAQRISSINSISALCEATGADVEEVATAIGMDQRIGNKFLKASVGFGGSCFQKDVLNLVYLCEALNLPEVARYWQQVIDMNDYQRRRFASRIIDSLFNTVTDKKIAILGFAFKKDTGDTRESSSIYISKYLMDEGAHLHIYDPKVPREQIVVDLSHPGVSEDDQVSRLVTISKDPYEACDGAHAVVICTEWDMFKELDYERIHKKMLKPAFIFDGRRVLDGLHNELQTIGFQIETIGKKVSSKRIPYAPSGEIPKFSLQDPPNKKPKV
As to the kind of experiment: High throughput screening for inhibitors of UDP-glucose dehydrogenase (NADH fluorescence). Format: biochemical. The following applies: read-out: POC (Percent of Controls); for inhibition at 25 µg/mL (stock): compound plates 20 μL/well of 25 μg/mL compound in 2.5% DMSO, relative to DMSO negative and UDP-xylose positive controls, higher POC = more inhibitory.

For assay [2], the target named is T2, WT UGDH (Homo sapiens, UniProt O60701).
T2 sequence (O60701 1-494): T1 sequence (O60701 1-494)
As to the kind of experiment: Thermal stability of UGDH, WT. Format: binding. As to the method: (§1) FIG. 8A-8D show UDP-xylose effects on the thermal stability of WT, T325A (inducible hexamer), and T325D (obligate dimer) UGDH. […] Statistical analyses were performed using a two-way ANOVA with Bonferroni post tests on PRISM.

Assay [3] has as its target T2, WT UGDH. As to the kind of experiment: UGDH inhibition assay (IC50, Ki), WT enzyme. In kind it is biochemical. The conditions noted are these: for IC50: 50 μM UDP-glc and 1 mM NAD+; for Mode of inhibition: UGDH. As to the method:
(§2) Ki values were determined by varying [UDP-glc] and holding NAD+ at saturating concentrations.
(§3) IC50 experiments were performed as described above (see e.g., Example 2).

Assay [4] deals with T3, T325A (inducible hexamer) UGDH (Homo sapiens, UniProt O60701, T325A).
T3 sequence (O60701 1-494 T325A): T1 sequence (O60701 1-494) with T325A
As to the kind of experiment: Thermal stability of UGDH, T325A. Format: binding. As to the method:
as §1

Assay [5] deals with T4, T325D (obligate dimer) UGDH (Homo sapiens, UniProt O60701, T325D).
T4 sequence (O60701 1-494 T325D): T1 sequence (O60701 1-494) with T325D
Description: Thermal stability of UGDH, T325D. In kind it is binding. As to the method:
as §1

For assay [6], the target named is T5, T325A-UGDH (inducible hexamer) (Homo sapiens, UniProt O60701, T325A).
T5 sequence (O60701 1-494 T325A): T1 sequence (O60701 1-494) with T325A
Description: UGDH inhibition assay (IC50, Ki), T325A mutant. Format: biochemical. As to the method:
as §2, §3

In the next assay the target is T6, UGDH T325A (Homo sapiens, UniProt O60701, T325A).
T6 sequence (O60701 1-494 T325A): T1 sequence (O60701 1-494) with T325A
As to the kind of experiment: Limited trypsin proteolysis of UGDH, T325A. As to the method:
(§4) UDP-xylose [20 μM] protected T325A apo from trypsin digestion (red star) and only slightly affected the other forms. […] Each assay contained 10 μg of enzyme, 10 ng Trypsin, and combinations of substrate, cofactor, and UDP-xylose, which was incubated 2.5 h, followed by SDS-PAGE.
(§5) The same procedures from above (see e.g., Example 7) were followed.

Assay [7] concerns the target T7, T325D-UGDH (obligate dimer) (Homo sapiens, UniProt O60701, T325D).
T7 sequence (O60701 1-494 T325D): T1 sequence (O60701 1-494) with T325D
Description: UGDH inhibition assay (IC50, Ki), T325D mutant. In kind it is biochemical. The conditions noted are these: required 4 μM T325D instead of 1 μM. As to the method:
as §2, §3

The target of assay [8] is T2, WT UGDH. Description: Limited trypsin proteolysis of UGDH, WT. The conditions noted are these: WT ternary complexes; 500 μM. As to the method:
as §4, §5

A further assay addresses T8, T325A-UGDH (Homo sapiens, UniProt O60701, T325A).
T8 sequence (O60701 1-494 T325A): T1 sequence (O60701 1-494) with T325A
As to the kind of experiment: UGDH kinetic characterization, T325A. Format: biochemical. The conditions noted are these: substrate/cofactor varied. An excerpt:
(§6) T325A and T325D are engineered inducible hexameric and obligate dimeric UGDH species, respectively.

Assay [9] addresses T2, WT UGDH. Description: UGDH kinetic characterization, WT. Format: biochemical. The conditions noted are these: substrate/cofactor varied.
Text: as §6

In the next assay the target is T9, T325D-UGDH (Homo sapiens, UniProt O60701, T325D).
T9 sequence (O60701 1-494 T325D): T1 sequence (O60701 1-494) with T325D
As to the kind of experiment: UGDH kinetic characterization, T325D. In kind it is biochemical. The following applies: substrate/cofactor varied.
Text: as §6

In another assay the target is T10, UGDH T325D (Homo sapiens, UniProt O60701, T325D).
T10 sequence (O60701 1-494 T325D): T1 sequence (O60701 1-494) with T325D
Description: Limited trypsin proteolysis of UGDH, T325D. The following applies: 20 μM, 2.5 h. As to the method: as §4, §5

19 molecules from US11478457B2, “Castration-resistant prostate cancer” (priority 2015, dated 2022) can be followed below.

Where a chain is given by its changes, count along the chain named.

As for `O=C1CC(Sc2nnnn2-c2ccccc2)C(=O)N1c1ccc([N+](=O)[O-])cc1` (stereo not shown), in assay [1], the inhibition at 25 µg/mL (stock) came out at 73%.

As for `CC(=O)NC(CC(=O)c1ccc(Cl)cc1Cl)C(Cl)(Cl)Cl` (stereo not shown), the inhibition at 25 µg/mL (stock) in assay [1] worked out at 86%.

With `CCc1c(C)sc(NC(=O)c2cccc([N+](=O)[O-])c2C)c1C(N)=O`, the inhibition at 25 µg/mL (stock) in [1] worked out at 58%.

As to `CCc1c(C)sc(NC(=O)c2ccoc2C)c1C(N)=O`, in assay [1], the inhibition at 25 µg/mL (stock) is 50%.

In the case of `O=C(Nc1ccc2c(c1)OCCO2)c1cc2ccccc2o1`, the inhibition at 25 µg/mL (stock) in [1] came out at 103%.

As for `NC(=O)c1c(NC(=O)C2CCCO2)sc2c1CCCCCC2` (stereo not shown), the inhibition at 25 µg/mL (stock) in [1] worked out at 74%.

For `O=[N+]([O-])c1ccc2[nH]c(-c3ccco3)nc2c1`, the inhibition at 25 µg/mL (stock) in assay [1] was found to be 46%.

For the molecule `Brc1ccc(C2Nc3ccccc3N2)o1`, the inhibition at 25 µg/mL (stock) in [1] worked out at 65%.

Turning to `Cc1cc(=O)n2ccc(N)c(O)c2n1`, the inhibition at 25 µg/mL (stock) in assay [1] stood at 50%.

Turning to `c1ccc(Nc2nc(-c3ccccc3)[n+](-c3ccccc3)s2)cc1`, the inhibition at 25 µg/mL (stock) in assay [1] stood at 52%.

As to `O=C1CC(Sc2nc3ccccc3s2)C(=O)N1c1ccccc1I` (stereo not shown), the inhibition at 25 µg/mL (stock) in assay [1] is 58%.

For `COc1cc(NC(=O)COc2ccc(C)cc2C)ccc1NC(=O)c1ccco1`, the inhibition at 25 µg/mL (stock) in [1] is 70%.

As for `O=C1C(Cl)=C(Cl)C(=O)C(Cl)=C1Cl`, the inhibition at 25 µg/mL in assay [1] amounted to 79%.

The term IC50 denotes the concentration at which inhibition is half-maximal. Usually Ki stands for a dissociation constant, usually derived from enzyme kinetics or from competition with a known ligand. The low end stands for a stronger hold on the target, the high end for a looser hold on the target. As to `CCC(C)(O)c1nnn(-c2nonc2N)c1C(C)(O)CC` (stereo not shown) [Compound 1, 2,2′-[1-(4-amino-1,2,5-oxadiazol-3-yl)-1H-1,2,3-triazole-4,5-diyl]di(2-butanol)], the “Effect on thermal stability” value (on WT UGDH [2] (UDP-glcA complex with WT); in [4] (UDP-glcA complex with T325A); in assay [5] (UDP-glcA complex with T325D)) was “decrease thermal stability” each time. The IC50 on WT UGDH [3] (WT-UGDH) turned out to be 261 ± 6.2 µM. Moreover, the affinity in assay [6] (varying [UDP-glc], NAD+ at saturating concentrations) corresponds to a Ki of 421 ± 118 µM. Besides, the “Effect on trypsin digestion” value at UGDH T325A (T325A with UDP-glcA and UDP-glcA with NADH, 750 μM) was “significantly affects”.

On to `O=C(O)CCc1ccc(-c2cccs2)o1` [Compound 31, 3-[5-(2-thienyl)-2-furyl]propanoic acid], for which the results for the IC50 (in assay [7]; against WT UGDH [3] (WT-UGDH); in assay [6]) were 799.4 ± 0.05 µM, 146.8 ± 1.05 µM and 86.98 ± 0.03 µM, respectively. On WT UGDH [3], the Mode of inhibition entry was “allosteric inhibitor”. In addition, the “Effect on thermal stability” value is “decreasing thermal stability” in [4] (T325A, all binary complexes except UDP-glucose) and “decreasing thermal stability” in [5] (T325D, all binary complexes except UDP-glucose). Further, the “Effect on trypsin digestion” value on WT UGDH [8] was “significantly affects”; at UGDH T325A (T325A ternary complexes, 500 μM) it was “significantly affects”.

The Km is the concentration of substrate that gives half-maximal velocity. As for `NC(=O)c1ccc[n+]([C@@H]2O[C@H](COP(=O)([O-])OP(=O)(O)OC[C@H]3O[C@@H](n4cnc5c(N)ncnc54)[C@H](O)[C@@H]3O)[C@@H](O)[C@H]2O)c1` [NAD+], the Km at T325A-UGDH stood at 1680 ± 455 µM; on WT UGDH [9], 1030 ± 215 µM; at T325D-UGDH, 1200 ± 290 µM. For the same molecule, the VMAX on T325A-UGDH amounted to 103 ± 8.5 nmol/min/mg; on WT UGDH [9] it was 206.1 ± 13.0 nmol/min/mg; on T325D-UGDH it was 38.0 ± 2.5 nmol/min/mg.

For the molecule `O=c1ccn([C@@H]2O[C@H](COP(=O)(O)OP(=O)(O)O[C@H]3OC[C@@H](O)[C@H](O)[C@H]3O)[C@@H](O)[C@H]2O)c(=O)[nH]1` [UDP-xylose, reference compound], the “Effect on thermal stability” value on WT UGDH [2] (NAD+ complex with WT) is “significantly increase thermal stability”; on WT UGDH [2] (apo WT), “increased the thermal stability”; in [4] (NAD+ complex with T325A), “significantly increase thermal stability”; in assay [4] (apo T325A), “increased the thermal stability”; in [5] (NAD+ complex with T325D), “significantly increase thermal stability”. Besides, the “Effect on trypsin digestion” value is given as “did not affect” at UGDH T325D (T325D apo and UDP-glc forms); “significantly protected” on UGDH T325D (T325D complexes with NAD+, NADH, and UDP-glcA); “protected” at UGDH T325A (T325A apo, 20 μM, 2.5 h). Further, the Mode of inhibition result on WT UGDH [3] is listed as “competitive inhibitor”. The half-inhibitory concentration (IC50) against WT UGDH [3] (WT-UGDH) worked out at 0.58 ± 0.09 µM. On WT UGDH [3] (WT-UGDH, varying [UDP-glc], NAD+ at saturating concentrations), this molecule displayed a Ki of 2.67 ± 0.54 µM.

For the molecule `CCC(C)(O)c1nnn(-c2nonc2N)c1C(C)(O)CC` (stereo not shown) [drawing 178], the inhibition at 25 µg/mL (stock) in assay [1] amounted to 101%.

With `O=C(O)CCc1ccc(-c2cccs2)o1` [drawing 227], the inhibition at 25 µg/mL (stock) in [1] was 87%.
